Laboratory results reported in PMC7287735 (Molecules, 2020).
Read-outs that look alike come from different tables or passages of the source.

Key:
HCoV-229E = assay: Anti-coronavirus cytoprotection assay (XTT, reduction of viral cytopathic effect) in MRC-5 cells; settings: for Therapeutic Index (TC50/EC50): MRC-5/HCoV-229E; for activity against HCoV-229E at the tested concentrations: MRC-5 cells, high test concentration 100 µM
MRC-5 cells = assay: Cellular toxicity to MRC-5 cells (XTT); settings: 6 days, duplicate data points
[1] = Human coronavirus 229E, MRC5, 144 h, read-out: EC50 (effective concentration that reduced 50% of viral cytopathic effect), HCoV-229E in MRC-5 cells, 6 days, triplicate data points
[2] = listed as 5′-O-tetradecanoyl ester conjugate of FTC (9)

Row | Structure (SMILES) | EC50 (HCoV-229E; [1]) | TC50 (toxic concentration that killed 50% of MRC-5 cells) (MRC-5 cells) | activity against HCoV-229E at the tested concentrations (HCoV-229E) | other results
1 | CCCCCCCCCCCCCC(=O)OC[C@@H]1O[C@H](n2cc(F)c(N)nc2=O)CS1 [5′-O-(tetradecanoyl)FTC (9), 5′-O-(tetradecanoyl)FTC] | 72.8 µM | 87.5 µM |  | Therapeutic Index (TC50/EC50) (HCoV-229E): 1.20; Therapeutic Index (TC50/EC50) (HCoV-229E; [2]): 1.2; TC50 (toxic concentration that killed 50% of MRC-5 cells) (MRC-5 cells; [2]): 87.5 ± 1.34 µM
2 | Nc1nc(=O)n([C@H]2CS[C@@H](CO)O2)cc1F [FTC (8), 2′,3′-dideoxy-5-fluoro-3′-thiacytidine] | > 100 µM | > 100 µM | not active | 
3 | CCSCCCCCCCCCCCC(=O)OC[C@H]1O[C@@H](n2cc(C)c(=O)[nH]c2=O)C[C@@H]1F [5′-O-(12-thioethydodecanoyl)FLT (5), 5′-O-(12-thioethydodecanoyl)FLT] | > 45.4 µM | 45.4 µM |  | TC50 (toxic concentration that killed 50% of MRC-5 cells) (MRC-5 cells; listed as 5): 45.4 to 55.3 µM
4 | Cc1cn([C@H]2C[C@H](F)[C@@H](CO)O2)c(=O)[nH]c1=O [FLT (4), 3′-Fluoro-3′-deoxythymidine] | > 100 µM | > 100 µM | not active | 
5 | C[C@H](Cn1cnc2c(N)ncnc21)OCP(=O)(O)O [TFV (2), Tenofovir] | > 100 µM | > 100 µM |  | 
6 | CCC(CC)COC(=O)[C@H](C)N[P@](=O)(OC[C@H]1O[C@@](C#N)(c2ccc3c(N)ncnn23)[C@H](O)[C@@H]1O)Oc1ccccc1 [Remdesivir (1), Remdesivir] | 0.067 ± 0.012 µM | > 2.0 µM |  | EC50 (HCoV-229E; read-out: EC50 (effective concentration that reduced 50% of viral cytopathic effect), HCoV-229E in MRC-5 cells, 6 days, triplicate data points): 0.07 µM; TC50 (toxic concentration that killed 50% of MRC-5 cells) (MRC-5 cells; listed as Remdesivir): > 2.0 µM; TC50 (toxic concentration that killed 50% of MRC-5 cells) (MRC-5 cells; listed as remdesivir): > 2.00 µM; TC50 (toxic concentration that killed 50% of MRC-5 cells) (MRC-5 cells; listed as remdesivir (1)): > 2 ± 0 µM
7 | Nc1ccn([C@H]2CS[C@@H](CO)O2)c(=O)n1 [3TC (6), 2′,3′-Dideoxy-3′-thiacytidine] | > 100 µM | > 100 µM | not active | 
8 | CCCCCCCCCCCCCC(=O)OC[C@@H]1O[C@H](n2ccc(N)nc2=O)CS1 [5′-O-(tetradecanoyl)3TC (7), 5′-O-(tetradecanoyl)3TC] | > 47.5 µM | 47.5 µM |  | TC50 (toxic concentration that killed 50% of MRC-5 cells) (MRC-5 cells; listed as 7): 45.4 to 55.3 µM
9 | C#C[C@]1(CO)O[C@@H](n2cnc3c(N)nc(F)nc32)C[C@@H]1O [EFdA (3), 4′-ethynyl-2-fluoro-2′-deoxyadenosine] | > 55.3 µM | 55.3 µM |  | TC50 (toxic concentration that killed 50% of MRC-5 cells) (MRC-5 cells; listed as 3): 45.4 to 55.3 µM
